# Measured values: patent publication US7132287B2, “Method for neural stem cell differentiation using 5HT-1A agonists” (Psychiatric Genomics, Inc., priority 2001, dated 2006)
# Where “and” joins values, the source holds several entries; their conditions need not be identical. Equal entries are not always repeated.
# How the values were obtained:
# [1] = tested on: cortical neural stem cells; experiment: Neuronal differentiation of cortical neural stem cells (β tubulin III / TuJ-1 immunofluorescence); type: cell-based, rat; settings: 1 μM Buspirone alone, 6 days
# Source text: Isolation of cortical and striatal stem cells. Timed pregnant Sprague Dawley rats obtained from Taconic at embryonic age E14-E15 were sacrificed as described above and the uterus removed and placed in ice cold PBS in a 10 cm petridish. After rinsing the uterus in PBS, embryos were removed from the uterus, rinsed in PBS and collected in cold HBSS (buffered with HEPES and sodium bicarbonate) in a 10 cm petridish and placed on ice.
# The cortex and striatum was dissected under a microscope and collected in a 15 ml tube of HBSS, on ice. Removal of meninges is not possible at this age, and no attempt was made to do so. If the dissected tissue was in large enough chunks and settle to the bottom of the tube, no centrifugation was performed. Alternatively, the tube was centrifuged at 1000 rpm for 5 minutes to pellet the tissue. Following centrifugation, the 15 ml tube containing the tissue was sprayed with 70% ethanol and taken into the sterile hood.
# The HBSS was aspirated and replaced with 10 ml of DMEM/F12. The tissue was collected at the bottom of the tube by gravity or centrifugation, medium was aspirated, and 1 ml of DMEM/F12 was to the tissue. Cells were dissociated by trituration as described above, followed by addition of 5 ml of DMEM/F12 and a second round of trituration. […] The tubes were placed standing 5–10 minutes in the hood to allow larger particles and meninges to settle. While the meninges were settling, a cell count was made. 10 μl of the cell suspension is diluted with trypan blue and counted in a hemocytometer. Cells were counted in the four outer chambers with the larger squares, and cell count calculated assuming that the volume enclosed in each of the chambers was […].
# Plating, expansion and passaging of cortical and striatal stem cells A generous amount of the triturated cell suspension was left in the original 15 ml tube to avoid fibroblast contamination in cultures. About 4–5 ml of the 6 ml of cells suspension was used for plating. Cells were plated at a concentration of approximately 1×10^6 per 10 cm dish. This culture is designated P0 (passage 0).
# Following plating cells were expanded for about 3–4 days. The cultures were never permitted to reach more than 70% confluency. Cultures were then passaged as follows: 5 ml of HBSS was added to each 10 cm dish and the cells incubated at 37° C. for 15–45 minutes, or until sufficient numbers of the stem cells were rounded up. It is not expected that all cells in the culture will round up as there are several cell types in the culture at P0. The pH of the HBSS should be neutral at all times during this incubation. Cells were then removed from the dish by pipetting with a 5 ml pipette, or by scraping with a policeman, collected in a 15 or 50 ml conical tube, and centrifuged at 1000 g for 5 minutes. Cells were gently re-suspended in medium, counted, and plated at a density of about 1×10^6 per 10 cm dish.
# (§1) Drug treatments. Stem cells obtained as described above were treated with drugs and subjected to differentiation protocols in the second passage. Cells were plated at a density of 1×10^4 cells per well of a 12-well petridish (Falcon).
# (§2) Drug treatments were started on the next day. […] The WAY 100635 antagonist compound was used simultaneously with buspirone or serotonin in the blocking experiments. Positive and negative control cultures were those treated with BDNF and FGF alone, respectively.
# (§3) Cells were treated with the designated concentrations of drugs or combinations thereof, daily, and were fed every alternate day with fresh medium. Experiments were maintained for about 6–10 days in most cases.
# [2] = tested on: cerebellar stem cells; experiment: Astrocytic differentiation of cerebellar stem cells (GFAP positive cells); type: cell-based, rat; settings: for % GFAP positive cells: Table 2 experiment
# Experimental: as §1, §2
# as §3, with “cases. Cells were fixed on about day 7–11 with a 4% solution of para-formaldehyde (PFA) in PBS, prepared as follows:” for “cases.”
# Immunofluorescent staining and visualization. After fixation, the PBS was aspirated from the fixed cells and the cells were treated with blocking solution (10% normal goat serum-NGS-Jackson Labs), 0.3% Triton-Sigma, in PBS) to saturate non-specific sites and permeabilize the cells. Following blocking, cells were incubated with the following designated primary antibodies diluted in 5% NGS for 1 hour at room temperatuare: mouse monoclonal anti-MAP-2 (Sigma): 1/250 dilution; mouse monoclonal anti-β tubulin III (Covance): 1/600 dilution; mouse anti-monoclonal glial fibrillary acidic protein (GFAP-ICN Biomedicals): 1/100 dilution.
# After the 1 hour incubation, cells were washed three times for 5 min each with PBS followed by incubation of a goat anti-mouse secondary antibody conjugated with stains Cy2 and Cy3 (Jackson Labs) for 1 hr at RT (dilution 1/100 as with the primary antibodies). Following three 5 minute washes with PBS, cells were incubated with the nuclear stain bis-benzimide (Sigma) for 10 min at RT. Cells were then washed 3 times with ultra-pure water and glass coverslips were mounted on them using AquaPolymount (Polysciences, Inc., PA) The mount was allowed to dry and the dishes were stored at 4° C.
# For visualization of staining, the mounted cells were viewed under a fluorescent microscope using the appropriate ultra violet filters. An eyepiece with an engraved grid was used to count the cells that stained positive for β tubulin III (TuJ-1), MAP2 or GFAP. The percent of cells positive for a given antigen was estimated by counting nuclei of all cells present in the same field, as the nuclei of the cells stain blue with the bis benzimide. Five fields were counted per treatment condition, and averages with standard deviations were calculated.
# To evaluate whether buspirone affected differentiation of neural stem cells into other neural cell types such as astrocytes, the buspirone-treated cerebellar cell cultures described above were subjected to immunofluorescence using a monoclonal antibody against an astrocyte-specific marker, glial fibrillary acidic protein, or GFAP.
# [3] = TuJ-1 staining, listed as Buspirone
structure (smiles),measurement,setting,value
"O=C1CC2(CCCC2)CC(=O)N1CCCCN1CCN(c2ncccn2)CC1 [buspirone, 8-[4-[4-(2-pyrimidinyl)-1-piperazinyl]butyl]-8-azaspiro[4,5]decane-7,9-dione]",Total No. of Cells,[1],1168 and 1228
same,% Fluorescent Cells,[1]; TuJ-1 staining,significant neuronal differentiation
same,% Fluorescent Cells,[1]; [3],27.27% and 20.15%
same,No. Fluorescent Cells,[1]; [3],320 and 260
same,% GFAP positive cells,[2]; 10 nM,26.3 ± 3.7%
same,effect on astrocytic differentiation,"[2]; 30 nM to 1 μM, FIG. 1B and FIG. 4",does not have any appreciable reproducible effects
same,% GFAP positive cells,[2]; 30 nM,12.9 ± 1.9%
same,% GFAP positive cells,[2]; 100 nM,20.6 ± 5.2%
same,% GFAP positive cells,[2]; 300 nM,21.4 ± 4.6%
same,% GFAP positive cells,[2]; 1000 nM,27.0 ± 9.0%
